Assay results from patent US20100022778A1, “PROCESS FOR PRODUCTION OF SULFINYLBENZIMIDAZOLE COMPOUNDS OR SALTS THEREOF” (priority 2006, published 2010).

System: gastric acid secretion in dogs having chronic gastric fistula
Assay: Gastric acid secretion inhibiting effect in dogs having chronic gastric fistula (histamine-stimulated)
Format: in vivo
Conditions: dog, histamine i.v.; for Gastric Acid Secretion Inhibiting Action (%): first day, 1 h 40 min to 2 h after administration; for Gastric Acid Secretion Inhibiting Persistence (%): second day (24 hours after administration)
Procedure: Using large dogs (body weight approximately 14 to 19 kg) having a chronic gastric fistula, the gastric acid secretion inhibiting action and gastric acid secretion inhibiting action persistence of test compounds of the Examples was investigated. The experiment was carried out over 2 days. On the first day, gastric juice was collected every 20 minutes under conditions of intravenously administering histamine (50 or 75 μg/kg/h) continuously for 3 hours. 1 Hour after commencing the histamine administration, the test compound suspended or dissolved in a 0.5% methylcellulose solution was administered at a volume of 0.1 ml/kg via an indwelling catheter in the duodenum. The gastric acid secretion inhibiting action of the test compound was then investigated over the subsequent 2 hours. On the second day (24 hours after the administration of the test compound), gastric juice was collected every 20 minutes under conditions of intravenously administering histamine continuously for 2 hours, and the gastric acid secretion inhibiting action persistence was investigated. After measuring the amount of gastric juice, a 0.5 ml sample of the gastric juice was taken, and neutralization titration was carried out to a pH of 7.0 with a 0.04 mol/l sodium hydroxide solution so as to measure the acid concentration. The acid concentration was multiplied by the amount of gastric juice so as to determine the gastric acid output. The gastric acid secretion inhibiting action was evaluated as the gastric acid secretion suppression rate (%) on the first day. The gastric acid secretion inhibiting action (%) was calculated using the following formula. In the case of 2 or more dogs, the mean over all of the dogs was calculated and is shown.
Gastric acid secretion inhibiting action (%)=(A−B)/A×100
[A] Gastric acid output over 20 minutes from 40 minutes to 1 hour after commencement of histamine administration [B] Gastric acid output over 20 minutes from 1 hour 40 minutes to 2 hours after administration of test compound
The gastric acid secretion inhibiting action persistence was evaluated as the gastric acid secretion suppression rate (%) on the second day. The gastric acid secretion inhibiting action persistence (%) was calculated using the following formula.
Gastric acid secretion inhibiting action persistence (%)=(C−D)/C×100
[C] Total gastric acid output from commencement of histamine administration on first day to 1 hour thereafter [D] Total gastric acid output from commencement of histamine administration on second day to 1 hour thereafter

[1] = 0.4 mg/kg i.d., mean of 10 dogs

`Cc1cnc(C[S+]([O-])c2nc3ccccc3[n-]2)c(C)c1OCC1COC(C)(C)OC1.[Na+]` (stereo not drawn) [Compound X, Sodium Salt of Optical Isomer Having Short Retention Time of 2-[[[4-(2,2-dimethyl-1,3-dioxan-5-yl)methoxy-3,5-dimethylpyridin-2-yl]methyl]sulfinyl]-1H-benzimidazole] was tested, and the “Gastric Acid Secretion Inhibiting Action (%)” value (0.1 mg/kg i.d., mean of 4 dogs) was 8%, the “Gastric Acid Secretion Inhibiting Persistence (%)” value (0.1 mg/kg i.d., mean of 4 dogs) was 6% and the “Gastric Acid Secretion Inhibiting Action (%)” value (0.2 mg/kg i.d., mean of 4 dogs) was 65%. For the same molecule, the “Gastric Acid Secretion Inhibiting Persistence (%)” value (0.2 mg/kg i.d., mean of 4 dogs) was 46%, the “Gastric Acid Secretion Inhibiting Action (%)” value [1] was 97% and the “Gastric Acid Secretion Inhibiting Persistence (%)” value [1] was 77%. The “Gastric Acid Secretion Inhibiting Action (%)” value (0.8 mg/kg i.d., mean of 8 dogs) was 100% and the “Gastric Acid Secretion Inhibiting Persistence (%)” value (0.8 mg/kg i.d., mean of 8 dogs) was 89%.
